# In patent US20070259439A1, “Determination of antibiotic concentration in bone” (Wyeth, priority 2006, published 2007):
# Where “and” joins values, the source holds several entries; their conditions need not be identical. Equal entries are not always repeated. Where two headings read alike, the source gives them in different places. Marks after values point to notes of the source that are not given here.
# Key:
# [1] = Antibiotic bone assay (LC/MS/MS): tigecycline concentration in incurred rat bone; type: in vivo; details: for concentration at 4 h: rat, femoral bone (pooled, ground), 3 mg/kg
# Method: Incurred rat bone was harvested and prepared from rats administered an antibiotic. Two different groups of incurred rat bone were prepared. Group A (n=12) represented bone from rats administered a single dose of tigecycline and Group B (n=19) represented bone from rats administered multiple doses of tigecycline. Group A rats were intravenously administered a single dose of tigecycline at 3 mg/kg. At 4 hours post-dose, the rats were euthanized and the femoral bones were harvested. Group B rats were intravenously administered 3 mg/kg of ^14C-tigecycline, once daily, for 3 days. At 4 hours post-dose, on day 3, the rats were euthanized and the femoral bones were harvested.
# Preparation of incurred rat bone sample: To prepare the bone for extraction, two femoral bones from each rat in each group were collected. Femoral bones were cleaned with a saline solution to remove blood and bone marrow. The bones were air-dried and combined to form two pooled samples of incurred rat bone, Group A and Group B. The femoral rat bone pools were ground for approximately 2 minutes in an industrial blender to produce bone particles <1 mm in diameter. The ground, pooled bone sample for each group was stored at −70° C. for later analysis.
# Incurred rat bone (IncRB) QC sample: Approximately 0.1 g of IncRB (Group A), which was stored at −70° and thawed, was weighed and dissolved in 1.0 ml of the extraction solvent to create a mixture of bone and solvent. Then, 50 μl of extraction solvent were added to match the volume of working standard solutions added to RBCtrl calibrators or QC samples. For IncHB QC sample, the procedure is similar to rat bone except for using a human incurred bone sample and adding L-ascorbic acid solution prior to adding extraction solvent.
# Approximately 100 mg of prepared IncRB and RBCtrl samples (or human control bone or incurred human bone) were accurately weighed and placed into 17×100 mm polypropylene tubes. One hundred twenty μL of stabilizing agent (100 mM ascorbic acid) was added to human bone samples (For the rat bone assay, it was proven that autosampler stability was improved by adding ascorbic acid). One ml of extraction solvent, 50 μl of each tigecycline working standard solution (or 50 μl of methanol for study samples) and 40 μl of working internal standard solution (5000 ng/ml [t-butyl-d9]-tigecycline in methanol) were added to each tube. All sample tubes were vortexed for about 60 seconds. A tissue homogenizing probe was introduced into the mixture (small particles of prepared bone samples in extraction solvent) to further break up the bone particles. The homogenizing probe was operated at a setting of 4 to 5 (˜10,000 rpm) for about 2 minutes until bone particles in the mixture became a cloudy, white homogenous suspension. The probe was removed from the suspension and cleaned between each sample preparation by immersion in 2 ml of water, operating for 30 to 60 seconds, immersion in 2 ml of methanol, operating for 30 to 60 seconds, and wiping dry. Each sample tube containing bone suspension was centrifuged at 3000 rpm, at room temperature, for about 5 minutes. The supernatant (200 μl) was removed and transferred to a 250-μl conical low volume polypropylene autosampler vial and recentrifuged for another 5 minutes before loading into the HPLC autosampler. A 20 μl aliquot of the supernatant was injected onto the LC/MS/MS for tigecycline determination.
# Liquid chromatography separation procedures were carried out on a 50×2.0 mm (I.D., 3 μm) HPLC analytical column with a pre-column in-line solvent filer (2.0 μm PEEK filter) and a LC/MS switching valve. PEEK tubing ( 1/16 in.×0.005 in.) connected the separation module, analytical column, LC/MS switching valve, and mass spectrometer. The separation module included a refrigerated autosampler, an in-line degasser, and a quaternary solvent delivery system. The analytical column temperature was approximately 20° C.; autosampler temperature was maintained at 4° C. […]
# [2] = Antibiotic bone assay (LC/MS/MS): tigecycline concentration in incurred human bone; type: in vivo
# Method: Incurred Human Bone: Incurred human bone samples were from Wyeth 3074A1-117-US clinical study. Human bone samples were from the collection of patients who received Tygacil treatment and had bone replacement surgery in 2004. All bone samples were stored at −70° C.
# Preparation of incurred human bone sample (incHB) QC sample: Collected large pieces of bone (5-50 g per piece) were immersed in liquid nitrogen in a double thickness 7″×8″ Bitran S series specimen bag and the bone sample was broken into 10 mm or smaller pieces using a steel hammer on a high density polyethylene dissecting borad (11″×13″). The bone pieces were then broken into smaller (approximately 5 mm or less) pieces using a large ceramic mortar and pestle. […]
# Calibrators, quality control (QC) samples, and IncRB QC sample (an incurred rat bone sample used as a QC and evaluated multiple times) were prepared as described below. Due to high concentration of oxidant(s) in human bone (incurred and control bone), which can destroy tigecycline before it can be detected after extraction, preparation of calibrators, QCs and incurred samples for human bone require addition of 120 μL of 100 mM L-ascorbic acid solution to the samples (0.1 g) and incubation for 5 minutes at room temperature before adding extraction solvent. […]
smiles,measurement,setting,value
"CN(C)c1cc(NC(=O)CNC(C)(C)C)c(O)c2c1C[C@H]1C[C@H]3[C@H](N(C)C)C(O)=C(C(N)=O)C(=O)[C@@]3(O)C(O)=C1C2=O [tigecycline, Tigecycline]","Tigecycline concentration in pooled incurred rat bone, Mean ± SD","[1]; Group A, single i.v. dose 3 mg/kg, Day 1, 4 hour, femoral bone pool of 12 rats, 5 replicates",1048 ± 88^b ng/g
same,"Tigecycline concentration in pooled incurred rat bone, Mean ± SD","[1]; Group B, multiple dose 3 mg/kg i.v. 14C-tigecycline once daily for 3 days, Day 3, 4 hour, pool of 19 rats, 5 replicates",3192 ng/g and 3192 ± 93^b ng/g
same,concentration at 4 h,"[1]; intravenous, Group A, single dose 3 mg/kg, Day 1, 4 hour, measured concentration divided by 0.771, read-out: Corrected Mean Conc. in rat bone",1360 ng/g
same,concentration at 4 h,"[1]; intravenous, Group B, multiple dose 3 mg/kg 14C-tigecycline, Day 3, 4 hour, measured concentration divided by 0.771, read-out: Corrected Mean Conc. in rat bone",4140 ng/g
same,concentration at 4 h,"[1]; intravenous, IncRB Group B extract used for the bioassay, read-out: Concentration of tigecycline in extracted rat bone sample as determined by LC/MS",3400 ng/g
same,concentration at 4 h,"[1]; iv, Group A, single i.v. dose 3 mg/kg, Day 1, 4 hour, femoral bone pool of 12 rats, 5 replicates, read-out: Tigecycline concentration in pooled incurred rat bone, Mean ± SD",1050 ng/g
same,IncRB QC sample concentration (incurred rat bone Group A),"[1]; single i.v. 3 mg/kg, 4 hours post-dose, nominal value = mean of 3-day global inter-day validation (n = 15)",987 ng/g and 987^a ng/g
same,Tigecycline concentration in incurred human bone samples,"[2]; 24 individual samples, study 3074A1-117-US, stored approximately twenty-one months at −70° C.",492 ng/g (2×) and 550 ng/g and 665 ng/g and 431 ng/g and 628 ng/g and 269 ng/g and 290 ng/g and 335 ng/g and 238 ng/g and 240 ng/g and 433 ng/g and 560 ng/g and 362 ng/g and 491 ng/g and 595 ng/g and 258 ng/g and 323 ng/g and 421 ng/g and 411 ng/g and 626 ng/g and 281 ng/g and 439 ng/g and 794 ng/g
same,Inc HB QC sample concentration (incurred human bone),"[2]; patients who received Tygacil, nominal value = mean of 3-day global inter-day validation (n = 15)",257 ng/g and 257^a ng/g
